{"source": "patent US20240315991A1", "about": "“USES OF HNF4 ALPHA AGONISTS” (Sanford Burnham Prebys Medical Discovery Institute, priority 2023, published 2024)", "origin": "cited, not measured here", "key": {"[1]": {"molecular_target": "T1, HNF4α (Homo sapiens, UniProt P41235)", "T1 sequence (P41235 1-474)": "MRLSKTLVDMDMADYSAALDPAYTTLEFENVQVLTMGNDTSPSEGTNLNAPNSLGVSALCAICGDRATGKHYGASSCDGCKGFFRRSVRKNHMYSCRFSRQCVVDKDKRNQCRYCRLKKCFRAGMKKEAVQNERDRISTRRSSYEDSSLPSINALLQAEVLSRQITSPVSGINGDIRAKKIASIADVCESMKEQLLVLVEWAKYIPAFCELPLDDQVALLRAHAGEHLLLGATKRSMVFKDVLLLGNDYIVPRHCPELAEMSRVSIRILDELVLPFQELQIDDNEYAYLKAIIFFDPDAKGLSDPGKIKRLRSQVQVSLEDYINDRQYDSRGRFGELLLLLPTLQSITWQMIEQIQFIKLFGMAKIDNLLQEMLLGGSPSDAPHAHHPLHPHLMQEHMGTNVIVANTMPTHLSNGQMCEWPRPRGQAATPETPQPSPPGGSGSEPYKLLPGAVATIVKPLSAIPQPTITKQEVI", "conditions": "GFP expressed under the control of the human insulin promoter; cited from earlier work"}, "[2]": {"molecular_target": "T1, HNF4α", "conditions": "cited from earlier work"}, "[3]": {"conditions": "cited from earlier work"}}}
{"smiles": "CCN(CCCc1ccccc1)CCCc1ccccc1", "note": "[Alverine]", "values": [{"measurement": "agonism of HNF4α", "setting": "[1]", "value": "weak agonists"}]}
{"smiles": "CC(Cc1cccc(C(F)(F)F)c1)NCCOC(=O)c1ccccc1", "note": "(centres unmarked) [Benfluorex]", "values": [{"measurement": "agonism of HNF4α", "setting": "[1]", "value": "weak agonists"}]}
{"smiles": "COc1cc(/C=C/C(=O)NCCc2ccc(O)cc2)ccc1O", "note": "[NFT, N-trans feruloyltyramine, reference compound]", "values": [{"measurement": "specificity for HNF4α", "setting": "[2]; HNF4α siRNA ablates their effect", "value": "exhibit specificity for HNF4α"}, {"measurement": "activation of HNF4α, potency compared with Alverine and Benfluorex", "setting": "[2]", "value": "much more potent activators"}, {"measurement": "oral bioavailability", "setting": "[3]", "value": "poor"}]}
